According to ChEMBL document CHEMBL1201862, “PubChem BioAssay data set” (2004):
Active and inactive are the calls of the source.

Legend:
[1] = target: Cytochrome P450 2D6 (Homo sapiens, UniProt P10635); assay: qHTS Assay for Inhibitors and Substrates of Cytochrome P450 2D6. [Related pubchem assays: 410 ]; type: ADME; conditions: read-out: Potency
[2] = target: Guanyl-specific ribonuclease T1 (Aspergillus oryzae (strain ATCC 42149 / RIB 40), UniProt P00651); assay: inhibition of ribonuclease T1 activity – biochemical, fluorescence polarization, 1536-well, counter-screen for TPT1 inhibitor project, dose response (AID 2167)
[3] = target: Likely tRNA 2'-phosphotransferase (Candida albicans (strain SC5314 / ATCC MYA-2876) (Yeast), UniProt Q5A7N4); assay: inhibition of Candida TPT1 enzyme activity – biochemical, fluorescence polarization, dose response (AID 2160)
[4] = viability loss in THP-1 monocytes – THP-1 cells, cytotoxicity control for Vif-APOBEC3G degradation inhibitor project, dose response (AID 1117359); type: functional; conditions: THP-1
[5] = target: Glutathione-S-transferase (Schistosoma japonicum, UniProt Q26513); assay: GST-antibody interaction or FRET quenching – biochemical, TR-FRET, artefact control for Vif-APOBEC3G degradation inhibitor project, dose response (AID 1117362); type: functional
[6] = target: Lysosomal acid glucosylceramidase (Homo sapiens, UniProt P04062); assay: Dose response cell-based high throughput screening assay to identify enhancers of beta-glucosidase activity. [Related pubchem assays: 784 ]; type: functional
[7] = target: Acyl-homoserine lactone acylase PvdQ (Pseudomonas aeruginosa (strain LESB58), UniProt Q9I194); assay: PvdQ acylase enzyme activity blockers – biochemical, fluorescence, plate reader and imaging, cherry-picks, dose response (AID 493231)
[8] = target: T1, Protein skinhead-1 (Caenorhabditis elegans, UniProt P34707); type: functional
T1 sequence (P34707 whole entry): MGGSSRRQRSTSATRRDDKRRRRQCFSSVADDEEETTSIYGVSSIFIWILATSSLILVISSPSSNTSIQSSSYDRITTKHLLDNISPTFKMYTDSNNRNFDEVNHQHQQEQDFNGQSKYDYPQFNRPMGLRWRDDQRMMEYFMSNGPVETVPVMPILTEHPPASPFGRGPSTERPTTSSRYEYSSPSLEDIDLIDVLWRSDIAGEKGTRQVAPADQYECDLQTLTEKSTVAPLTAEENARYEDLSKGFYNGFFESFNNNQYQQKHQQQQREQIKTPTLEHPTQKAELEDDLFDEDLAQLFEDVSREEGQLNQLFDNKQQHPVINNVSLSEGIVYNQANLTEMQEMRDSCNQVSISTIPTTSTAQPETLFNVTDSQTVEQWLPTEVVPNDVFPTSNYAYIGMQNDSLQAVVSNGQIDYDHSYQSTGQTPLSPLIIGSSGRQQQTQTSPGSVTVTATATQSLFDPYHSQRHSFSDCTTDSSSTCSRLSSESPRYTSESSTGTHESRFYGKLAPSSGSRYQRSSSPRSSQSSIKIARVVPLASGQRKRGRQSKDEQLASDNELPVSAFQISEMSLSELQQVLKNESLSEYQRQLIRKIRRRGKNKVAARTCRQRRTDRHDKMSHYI

[9] = NIH-3T3 fibroblast cytotoxicity, dose response, cytotoxicity control, cell-based, fluorescence, Alamar Blue, secondary assay (AID 2327); type: functional;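 note: NIH-3T3 mouse fibroblasts cultured with fluconazole at 8 µg/mL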
[10] = luciferase reporter signal suppression in cells – H4 neuroglioma cells, luminescence, dose response (AID 1990); type: functional, cell-based
[11] = Luminescence Cell-Based Dose Response HTS to Identify Inhibitors of 5'UTR Stem-Loop Driven Prion Protein mRNA Translation in H4 Neuroglioblastoma Cells. [Related pubchem assays: 1827 (Project Summary), 1813 (Primary HTS)]; type: functional
[12] = alpha-synuclein stem-loop luciferase translation blockers – H4 neuroglioma cells, luminescence, confirmation (AID 1988); type: functional, cell-based
[13] = target: Transitional endoplasmic reticulum ATPase (Homo sapiens, UniProt P55072, C522A); assay: C522A mutant p97 ATPase inhibitors, dose response, counter-screen for p97 inhibitor project, biochemical, luminescence (AID 1544)
[14] = viability of PTEN-deleted HCT116 cells – cell-based, HCT116 PTEN knockout, dose response (AID 1047); type: functional;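 note: HCT116 colon tumor cells with PTEN knocked out; cells exposed to compound for 60 hours before readout; potency for loss of cell viability measured by luminescence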
[15] = target: T2, Calpain-2 catalytic subunit (Sus scrofa, UniProt P43367); assay: m-calpain protease blockers, concentration series – biochemical, fluorogenic peptide substrate, dose response (AID 1420); type: functional
T2 sequence (P43367 whole entry): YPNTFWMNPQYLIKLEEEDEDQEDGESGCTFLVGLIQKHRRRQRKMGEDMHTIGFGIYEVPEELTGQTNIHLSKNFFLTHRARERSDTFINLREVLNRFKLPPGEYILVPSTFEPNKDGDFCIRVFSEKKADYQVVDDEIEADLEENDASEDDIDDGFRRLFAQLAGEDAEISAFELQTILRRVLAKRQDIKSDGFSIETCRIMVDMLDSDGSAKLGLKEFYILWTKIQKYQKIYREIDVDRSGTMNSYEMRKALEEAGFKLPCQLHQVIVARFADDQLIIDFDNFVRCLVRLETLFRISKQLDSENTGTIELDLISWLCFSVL

[16] = viability of HCT116 lacking mutant beta-catenin – cell-based, human colon tumor, dose response (AID 1045); type: functional;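 note: HCT116 colon tumor cells with beta catenin knocked out; cells exposed to compound for 60 hours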
[17] = target: Transitional endoplasmic reticulum ATPase (Homo sapiens, UniProt P55072); assay: p97 ATPase inhibitors, dose response, biochemical (AID 1534)
[18] = target: T3, Bcl-2-related protein A1 (Mus musculus, UniProt Q07440); type: functional;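 note: confirmatory dose–response counterscreen on Bfl-1, used to check hits from a UBC13 polyubiquitin inhibitor campaign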
T3 sequence (Q07440 whole entry): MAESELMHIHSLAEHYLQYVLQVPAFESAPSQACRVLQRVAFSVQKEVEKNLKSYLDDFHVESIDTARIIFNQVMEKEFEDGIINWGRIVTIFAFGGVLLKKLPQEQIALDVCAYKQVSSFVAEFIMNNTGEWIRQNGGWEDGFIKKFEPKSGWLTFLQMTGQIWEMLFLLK

[19] = target: T4, Ubiquitin-conjugating enzyme E2 N (Homo sapiens, UniProt P61088); type: functional
T4 sequence (P61088 whole entry): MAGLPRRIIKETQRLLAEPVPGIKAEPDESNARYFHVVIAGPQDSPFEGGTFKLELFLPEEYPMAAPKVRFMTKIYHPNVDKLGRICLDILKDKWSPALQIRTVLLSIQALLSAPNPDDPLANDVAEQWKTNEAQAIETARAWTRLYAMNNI

[20] = target: T4, Ubiquitin-conjugating enzyme E2 N; type: functional; remark: listed apart in the source

Chain of Glutathione-S-transferase (Q26513 whole entry): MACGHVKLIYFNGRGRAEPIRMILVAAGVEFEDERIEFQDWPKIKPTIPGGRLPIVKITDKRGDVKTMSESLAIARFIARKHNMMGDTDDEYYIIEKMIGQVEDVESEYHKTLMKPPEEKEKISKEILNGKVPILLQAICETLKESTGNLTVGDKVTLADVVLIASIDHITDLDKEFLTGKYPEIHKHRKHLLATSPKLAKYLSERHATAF
Chain of Acyl-homoserine lactone acylase PvdQ (Q9I194 24-193 limits assumed): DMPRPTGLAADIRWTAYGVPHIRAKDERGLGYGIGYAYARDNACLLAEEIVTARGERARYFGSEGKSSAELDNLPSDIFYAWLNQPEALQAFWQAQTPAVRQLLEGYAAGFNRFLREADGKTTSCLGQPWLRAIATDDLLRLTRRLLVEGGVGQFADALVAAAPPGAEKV
Chain of Acyl-homoserine lactone acylase PvdQ (Q9I194 217-762 limits assumed): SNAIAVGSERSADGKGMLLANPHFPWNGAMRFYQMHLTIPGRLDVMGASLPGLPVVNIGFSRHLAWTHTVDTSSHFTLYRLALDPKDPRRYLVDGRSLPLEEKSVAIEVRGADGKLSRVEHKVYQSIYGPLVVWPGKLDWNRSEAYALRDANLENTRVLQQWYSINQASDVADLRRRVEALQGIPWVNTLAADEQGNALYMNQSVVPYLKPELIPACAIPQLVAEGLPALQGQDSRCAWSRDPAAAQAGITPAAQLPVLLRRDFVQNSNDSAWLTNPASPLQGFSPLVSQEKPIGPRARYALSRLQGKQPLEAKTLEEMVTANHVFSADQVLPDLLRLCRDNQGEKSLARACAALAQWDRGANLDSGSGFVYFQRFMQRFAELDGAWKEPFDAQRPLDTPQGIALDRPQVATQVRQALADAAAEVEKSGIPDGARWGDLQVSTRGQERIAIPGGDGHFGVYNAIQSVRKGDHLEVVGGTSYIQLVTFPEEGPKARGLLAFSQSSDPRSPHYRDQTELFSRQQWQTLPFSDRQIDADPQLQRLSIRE
Chain of Transitional endoplasmic reticulum ATPase (Homo sapiens, UniProt P55072, C522A) (P55072 2-806 C522A limits assumed): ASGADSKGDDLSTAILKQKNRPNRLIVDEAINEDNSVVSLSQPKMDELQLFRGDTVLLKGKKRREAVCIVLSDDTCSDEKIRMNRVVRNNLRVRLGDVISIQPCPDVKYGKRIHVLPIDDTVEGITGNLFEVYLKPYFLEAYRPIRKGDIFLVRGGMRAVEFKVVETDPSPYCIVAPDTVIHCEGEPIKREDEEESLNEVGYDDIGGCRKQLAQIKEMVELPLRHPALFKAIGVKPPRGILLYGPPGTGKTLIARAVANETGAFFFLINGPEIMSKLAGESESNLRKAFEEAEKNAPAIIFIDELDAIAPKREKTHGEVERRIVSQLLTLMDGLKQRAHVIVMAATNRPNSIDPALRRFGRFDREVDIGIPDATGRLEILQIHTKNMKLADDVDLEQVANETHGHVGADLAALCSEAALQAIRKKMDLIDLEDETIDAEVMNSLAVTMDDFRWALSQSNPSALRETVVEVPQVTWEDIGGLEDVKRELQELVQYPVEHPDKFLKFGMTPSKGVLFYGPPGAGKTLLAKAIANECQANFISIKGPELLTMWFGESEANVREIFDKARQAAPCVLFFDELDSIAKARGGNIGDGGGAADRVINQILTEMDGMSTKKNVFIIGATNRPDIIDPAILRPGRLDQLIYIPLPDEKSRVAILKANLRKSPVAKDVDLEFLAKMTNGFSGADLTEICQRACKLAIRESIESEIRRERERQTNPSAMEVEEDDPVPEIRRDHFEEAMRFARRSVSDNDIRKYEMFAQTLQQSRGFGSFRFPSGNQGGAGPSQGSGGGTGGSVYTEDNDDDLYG
Chain of Lysosomal acid glucosylceramidase (P04062 whole entry): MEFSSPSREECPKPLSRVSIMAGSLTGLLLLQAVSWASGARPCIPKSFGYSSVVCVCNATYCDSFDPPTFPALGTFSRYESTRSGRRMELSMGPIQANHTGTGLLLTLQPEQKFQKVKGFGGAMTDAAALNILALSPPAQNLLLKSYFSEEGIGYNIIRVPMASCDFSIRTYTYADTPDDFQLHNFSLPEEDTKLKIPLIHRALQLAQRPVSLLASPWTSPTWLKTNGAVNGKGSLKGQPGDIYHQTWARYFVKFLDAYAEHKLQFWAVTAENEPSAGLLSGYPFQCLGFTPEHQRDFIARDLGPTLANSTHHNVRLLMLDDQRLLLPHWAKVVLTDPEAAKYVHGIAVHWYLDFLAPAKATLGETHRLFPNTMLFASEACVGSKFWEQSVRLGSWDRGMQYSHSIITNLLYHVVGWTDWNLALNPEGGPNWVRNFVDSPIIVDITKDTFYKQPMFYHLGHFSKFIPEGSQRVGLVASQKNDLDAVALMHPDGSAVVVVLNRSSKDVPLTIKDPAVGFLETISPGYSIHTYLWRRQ
Chain of Transitional endoplasmic reticulum ATPase (Homo sapiens, UniProt P55072) (P55072 whole entry): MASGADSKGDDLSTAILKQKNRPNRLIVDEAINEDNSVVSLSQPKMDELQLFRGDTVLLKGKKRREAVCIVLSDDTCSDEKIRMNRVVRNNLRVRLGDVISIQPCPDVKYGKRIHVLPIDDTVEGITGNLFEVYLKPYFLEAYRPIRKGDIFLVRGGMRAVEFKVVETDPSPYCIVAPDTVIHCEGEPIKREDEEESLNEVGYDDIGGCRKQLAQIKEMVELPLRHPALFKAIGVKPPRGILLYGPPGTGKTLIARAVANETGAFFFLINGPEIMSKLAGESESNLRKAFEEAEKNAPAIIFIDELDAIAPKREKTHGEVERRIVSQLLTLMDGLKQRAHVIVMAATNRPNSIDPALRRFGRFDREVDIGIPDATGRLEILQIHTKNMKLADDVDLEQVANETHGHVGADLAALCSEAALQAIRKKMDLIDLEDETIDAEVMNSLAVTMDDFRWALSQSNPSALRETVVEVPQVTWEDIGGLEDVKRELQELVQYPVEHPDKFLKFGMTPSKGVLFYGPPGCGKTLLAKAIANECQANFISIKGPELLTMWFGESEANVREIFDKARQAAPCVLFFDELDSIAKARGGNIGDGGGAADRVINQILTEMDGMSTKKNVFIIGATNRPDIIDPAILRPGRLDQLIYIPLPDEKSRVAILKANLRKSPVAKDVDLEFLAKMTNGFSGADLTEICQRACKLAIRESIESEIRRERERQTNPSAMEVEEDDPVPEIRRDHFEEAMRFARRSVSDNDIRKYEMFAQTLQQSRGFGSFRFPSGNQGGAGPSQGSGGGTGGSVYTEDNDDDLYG
Chain of Guanyl-specific ribonuclease T1 (P00651 whole entry): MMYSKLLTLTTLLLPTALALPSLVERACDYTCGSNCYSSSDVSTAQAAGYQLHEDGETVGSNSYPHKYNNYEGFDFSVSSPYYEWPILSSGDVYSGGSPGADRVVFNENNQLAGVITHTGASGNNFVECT
Chain of Likely tRNA 2'-phosphotransferase (Q5A7N4 whole entry): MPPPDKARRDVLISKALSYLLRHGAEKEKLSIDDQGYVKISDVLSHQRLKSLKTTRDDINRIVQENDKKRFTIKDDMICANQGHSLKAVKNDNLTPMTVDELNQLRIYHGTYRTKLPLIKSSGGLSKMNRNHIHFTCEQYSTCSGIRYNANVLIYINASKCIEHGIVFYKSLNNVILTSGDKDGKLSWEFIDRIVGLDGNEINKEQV
Chain of Cytochrome P450 2D6 (P10635 whole entry): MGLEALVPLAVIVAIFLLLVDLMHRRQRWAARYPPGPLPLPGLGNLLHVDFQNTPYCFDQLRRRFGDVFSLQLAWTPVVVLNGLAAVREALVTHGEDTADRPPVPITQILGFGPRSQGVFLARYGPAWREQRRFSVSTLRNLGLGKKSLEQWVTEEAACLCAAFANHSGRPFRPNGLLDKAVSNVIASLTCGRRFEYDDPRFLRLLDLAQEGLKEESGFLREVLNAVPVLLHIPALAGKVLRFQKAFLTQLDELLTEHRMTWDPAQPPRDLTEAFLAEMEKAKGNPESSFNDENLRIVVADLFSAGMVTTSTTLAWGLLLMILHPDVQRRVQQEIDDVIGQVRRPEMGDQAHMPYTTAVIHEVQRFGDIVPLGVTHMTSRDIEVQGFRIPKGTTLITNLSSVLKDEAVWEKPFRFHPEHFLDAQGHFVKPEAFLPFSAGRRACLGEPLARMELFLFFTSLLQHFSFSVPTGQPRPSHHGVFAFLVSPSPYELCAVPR

## COc1ccccc1CNc1cc(-c2ccccc2C(F)(F)F)ncn1
[1]
  AC50: 39.8 µM (inconclusive)

## CCN1CCN(c2cc(N3CCN(C(=O)c4ccco4)CC3)c3c4c(onc24)-c2ccccc2C3=O)CC1
[2]
  IC50: 7.8 µM (active)
[3]
  IC50: 10.7 µM (not active)
[4]
  CC50: > 40 µM (active)
[5]
  IC50: > 100 µM (active)

## CC(=O)N1CCc2cc(Br)cc(S(=O)(=O)NCCN3CCCCC3C)c21 (stereo not given)
[6]
  EC50: > 50 µM (not active)

## Clc1ccc(-c2nnc(-c3ccco3)o2)cc1
[7]
  AC50: 24.3 µM (active)
[8]
  IC50: 17.2 µM (active)

## N=C(N)N/N=C/c1ccc(OCc2ccc(Cl)cc2Cl)cc1
[9]
  EC50: 21 µM (inconclusive)
[10]
  EC50: > 120 µM (not active)
[11]
  EC50: > 120 µM (not active)
[12]
  EC50: > 120 µM (not active)
[13]
  IC50: > 50 µM (not active)
[14]
  EC50: 4.19 µM (active)
[15]
  IC50: 7.31 µM (not active)
[16]
  EC50: 4.16 µM (active)
[17]
  IC50: > 50 µM (not active)
[18]
  IC50: 13 µM (active)
[19]
  IC50: 7.26 µM (active)
[20]
  IC50: 5.97 µM (active)
